Values quoted from earlier work, collected in patent US8323685B2, “Methods of processing compositions containing microparticles” (Baxter International Inc., priority 2008, dated 2012).

What was measured:
[1] = tested on: rats; conditions: oral, all at once (acute toxicity), minimal amount reported in the literature
[2] = ambient temperature such as 20-25° C.

| SMILES | LD50 [1] [g/kg body weight] | Solubility (Sol) of water in the liquid [2] [g/100 g] |
| --- | --- | --- |
| CCC(C)=O [2-butanone (MEK), 2-butanone] | 2.7 | – |
| CC(C)=O [Acetone] | 5.8 | – |
| CC(C)OC(C)C [diisopropyl ether] | – | 0.2 |
| COCCOC [dimethoxyethane] | 10 | – |
| CCOCC [ether] | 1.2 | 7.5 |
